Experimental data reported in patent publication US5001141A, “N-(2-(2-oxo-1-imidazolidinyl)ethyl)-3-phenyl-urea and analogs as agents for induction of antioxidant enzymes” (E. I. Du Pont de Nemours and Company, priority 1989, dated 1991).
Blank lines part the entries; values can stand above or below the molecule they belong to.

What was measured:
[1] = test system: superoxide dismutase (SOD); assay: SOD activity in Gin-1 human gingival fibroblasts; assay type: cell-based; conditions: Gin-1 cells; for SOD % Increase: vs untreated
Description: (§1) 1. In vitro Administration of compounds of Examples 1 or 2 (Compound 1 and Compound 2, respectively).
(§2) Two different cell types, human gingival fibroblasts (Gin-1) and bovine aortic endothelial cells (CPA ATCl CCL207) were obtained from the American Type Culture Collection. They were incubated until confluent in Dulbecco's modified Eagles medium, supplemented with 2 mM glutamine and 10% heat-inactivated fetal calf serum at 37° C. in a humidified chamber with 5% CO2 in air. Compounds were dissolved in DMSO, diluted to 100 mM with distilled deionized H2 O, and further diluted with Dulbecco's medium (without fetal bovine serum), to desired concentrations. The usual time of incubation with the compounds of this invention was 24 hr at 37° C. in a humidified incubator with 5% CO2 in air. Lactic dehydrogenase (LDH) release was determined in several in vitro preparations as an index of cytotoxicity. using Sigma Diagnostic Kit #500. LDH release was expressed as a percentage of total LDH activity released from cells treated with 0.4% Triton X [Cabaud, P. G., Wroblewski, F. Am. J. Clin. Pathol. 30:234-236, (1958)].
(§3) Prior to the enzymatic assays the Gin-1 cells and aortic endothelial cells were prepared as follows: cells were rinsed several times with phosphate buffered saline without Ca^+2 or Mg^+2, removed from the culture flasks with 0.25% trypsin, counted using a hemocytometer, and resuspended at 2-3×10^6 cells/ml in Dulbecco's medium without fetal calf serum. Cells were then disrupted by pulse sonication and centrifuged at 100,000 xg at 4° C. Total protein [Bradford, M. M., Anal. Biochem 72:248-254, (1976)] and enzyme activities were determined on the cell sonicates, using standard techniques, SOD activity was determined using the method of McCord and Fridovich [McCord, J., Fridovich I., J. Biol. Chem. 244:6049-6055, (1969)]. Catalase activity was measured using the method of Beers and Sizer [Beers, R. F., Sizer, I. W., J. Biol. Chem. 195:133-146, (1952)]. Glutathione peroxidase activity was determined by the method of Guenzler et al. [Guenzler, W. A., Kremers, H., Flohe, L., Z. Klin. Chem. Klin. Biochem. 12:444-448 (1974)].
(§4) All enzyme activities were expressed as units of activity per mg protein. The data were compared by Student's t test [Snedecor, W. G., Statistical Methods, p. 45, (1964)]. The level of significance was taken as p<0.05.

[2] = test system: glutathione peroxidase (GSH-PX); assay: Glutathione peroxidase activity in Gin-1 human gingival fibroblasts; assay type: cell-based; conditions: Gin-1 cells
Description: as §1, §2, §3, §4

catalase (CAT) [3] = assay: Catalase activity in Gin-1 human gingival fibroblasts; assay type: cell-based; conditions: Gin-1 cells; for CAT % Increase: vs untreated
Description: as §1, §2, §3, §4

[4] = test system: superoxide dismutase (SOD) and catalase (CAT); assay: Induction of antioxidant enzymes SOD and CAT in mammalian cells and in organs of rats; conditions: Gin-1 cells, 1.0 mM, 24 hours; either SOD or CAT, or both enzymes
Description: as §1, §2
as §3, with “Cells were then disrupted by pulse sonication and centrifuged at 100,000 xg at 4° C.” left out, “Chem. Klin. Biochem. 12:444-448 (1974)].” left out
All enzyme activities were expressed as units of activity per mg protein. […]

[5] = test system: superoxide dismutase (SOD); assay: SOD activity in rat heart, liver and lung after in vivo treatment
Description: Male Lewis rats (250 g) were injected with 0.9% saline (controls) or Compound 1 (100 mg/kg) intraperitoneally twice a day for two days. Heart, liver and lungs were removed en bloc, dissected free of extraneous tissue, and blotted dry to remove contaminating blood. A portion of each tissue (approximately 0.5 g) was homogenized, and centrifuged at 500 xg for 10 minutes at 4° C. A 2 ml aliquot of supernatant was removed and centrifuged at 25,000 xg for 30 minutes. The supernatants were then decanted, and analyzed for SOD and CAT activities and total protein as described above.
as §4

catalase (CAT) [6] = assay: Catalase activity in bovine aortic endothelial cells; assay type: cell-based; conditions: for CAT activity: n = 6, mean ± SEM
Description: as §1, §2, §3, §4

Gin-1 cells = assay: LDH release from Gin-1 cells as index of cytotoxicity; assay type: cell-based, human
Description: as §2

[7] = as above; assay type: cell-based, human; conditions: human, % of total LDH released by 0.4% Triton X, mean ± SEM
Description: as §2

[8] = test system: polymorphonuclear leukocyte infiltration into ozone-exposed rat lungs; conditions: Bassett et al. 1988; cited from earlier work
[9] = test system: glutathione peroxidase (GSH-PX); assay: Glutathione peroxidase activity in bovine aortic endothelial cells; assay type: cell-based; conditions: for GSH-PX activity: n = 6, mean ± SEM
Description: as §1, §2, §3, §4

[10] = test system: superoxide dismutase (SOD); assay: SOD activity in bovine aortic endothelial cells; assay type: cell-based; conditions: for SOD activity: n = 10, mean ± SEM, * P < 0.05 vs 0 mM
Description: as §1, §2, §3, §4

[11] = Compound 2, at one or more concentrations

- GSH-PX activity (in words) [2]: remained constant
Compound: O=C(NCCN1CCNC1=O)Nc1ccc(F)cc1 [Compound 2, 1-[2-(2-oxo-1-imidazolidinyl)ethyl]-3-(4-fluorophenyl)urea]
- SOD activity ([1]; 0.25 mM, n = 8, mean ± SEM, * P < 0.05 vs 0 mM): 15.2 ± 1.6 U/mg Protein
- SOD activity ([1]; 0.50 mM, n = 8, mean ± SEM, * P < 0.05 vs 0 mM): 15.9 ± 1.7 U/mg Protein
- SOD activity ([1]; 1.0 mM, n = 8, mean ± SEM, * P < 0.05 vs 0 mM): 14.5 ± 2.2 U/mg Protein
- SOD activity (in words) [1, 11]: significantly increased (P<0.05) at one or more concentrations
- GSH-PX activity ([2]; Compound 2 table, 0.25 mM, n = 6, mean ± SEM): 35.0 ± 1.4 U/mg Protein
- GSH-PX activity ([2]; Compound 2 table, 0.50 mM, n = 6, mean ± SEM): 40.0 ± 4.7 U/mg Protein
- GSH-PX activity ([2]; Compound 2 table, 1.0 mM, n = 6, mean ± SEM): 39.1 ± 4 U/mg Protein
- CAT activity (catalase (CAT) [3]; 0.25 mM, n=6, mean ± SEM): 8.3 ± 0.8 U/mg Protein
- CAT activity (catalase (CAT) [3]; 0.50 mM, n = 6, mean ± SEM, * P < 0.05 vs 0 mM): 11.4 ± 1.8 U/mg Protein
- CAT activity (catalase (CAT) [3]; 1.0 mM, n=6, mean ± SEM): 9.5 ± 1.4 U/mg Protein
- CAT activity (in words) (catalase (CAT) [3]; [11]): significantly increased (P<0.05) at one or more concentrations

Compound: O=C(NCCN1CCNC1=O)Nc1ccc(Cl)cc1 [Example 7]
- SOD activity ([1]; 1.0 mM, 24 hours, Table 5): 5.8 ± 1.2 U/mg Protein
- SOD % Increase ([1]; 1.0 mM, 24 hours): 51%
- SOD and/or CAT activity (in words) [4]: increased
- CAT activity (catalase (CAT) [3]; 1.0 mM, 24 hours, Table 5): 3.6 ± 0.9 U/mg Protein
- CAT % Increase (catalase (CAT) [3]; 1.0 mM, 24 hours): 95%

- Effect on SOD activity, ranking among Ex. 7, 11, 12 (in words) ([1]; 1.0 mM, 24 hours): greatest effect on SOD
- Effect on CAT activity, ranking among Ex. 7, 11, 12 (in words) (catalase (CAT) [3]; 1.0 mM, 24 hours): least effect on CAT
Compound: O=C(Nc1ccccc1)NN1CCCOC1=O [Example 12]
- SOD activity ([1]; 1.0 mM, 24 hours, Table 5): 6.5 ± 0.9 U/mg Protein
- SOD % Increase ([1]; 1.0 mM, 24 hours): 69%
- SOD and/or CAT activity (in words) [4]: increased
- CAT activity (catalase (CAT) [3]; 1.0 mM, 24 hours, Table 5): 2.5 ± 0.6 U/mg Protein
- CAT % Increase (catalase (CAT) [3]; 1.0 mM, 24 hours): 35%

- Effect on SOD activity, ranking among Ex. 7, 11, 12 (in words) ([1]; 1.0 mM, 24 hours): least effect on SOD activity
- Effect on CAT activity, ranking among Ex. 7, 11, 12 (in words) (catalase (CAT) [3]; 1.0 mM, 24 hours): affected CAT the most
Compound: O=C(NCCN1CCNC1=S)Nc1ccccc1 [Example 11]
- SOD activity ([1]; 1.0 mM, 24 hours, Table 5): 4.0 ± 0.8 U/mg Protein
- SOD % Increase ([1]; 1.0 mM, 24 hours): 3%
- SOD and/or CAT activity (in words) [4]: increased
- CAT activity (catalase (CAT) [3]; 1.0 mM, 24 hours, Table 5): 4.1 ± 1.6 U/mg Protein
- CAT % Increase (catalase (CAT) [3]; 1.0 mM, 24 hours): 118%

Compound: O=C(NCCN1CCNC1=O)Nc1ccccc1 [Compound 1, 1-[2-(2-oxo-1-imidazolidinyl)ethyl]-3-phenylurea]
- Tissue SOD Activity, Heart ([5]; rat heart, 100 mg/kg i.p. 2 × /day for 2 days, (8), mean ± SEM, * P < 0.05 vs saline control): 194 ± 14 U/mg Protein
- SOD activity in all three tissues (in words) ([5]; rat heart, liver, lung, compared with controls): induced SOD activity in all three tissues studied
- Tissue SOD Activity, Liver ([5]; rat liver, 100 mg/kg i.p. 2 × /day for 2 days, (8), mean ± SEM, * P < 0.05 vs saline control): 444 ± 68 U/mg Protein
- Tissue SOD Activity, Lung ([5]; rat lung, 100 mg/kg i.p. 2 × /day for 2 days, (8), mean ± SEM, * P < 0.05 vs saline control): 134 ± 7 U/mg Protein
- CAT activity (catalase (CAT) [6]; 0.05 mM (so in the source)): 27.1 ± 3.3 U/mg Protein
- CAT activity (catalase (CAT) [6]; 0.25 mM): 25.7 ± 3.6 U/mg Protein
- CAT activity (catalase (CAT) [6]; 1.0 mM, * P < 0.05 vs 0 mM): 31.9 ± 2.4 U/mg Protein
- Catalase activity (in words) (catalase (CAT) [6]; highest concentration (1 mM) only): significantly increased at the highest concentration (1 mM) only
- Cytotoxicity as shown by LDH release (in words) (Gin-1 cells): no indication of cytotoxicity
- cytotoxicity at 24 h, 125 µM ([7]; 0.125 mM): 7 ± 2%
- cytotoxicity at 24 h, 1000 µM ([7]; 1.0 mM): 8 ± 2%
- SOD activity ([1]; 0.125 mM, n=7, mean ± SEM, * P < 0.05 vs 0 mM): 13.1 ± 1.5 U/mg Protein
- SOD activity ([1]; 0.25 mM, n=7, mean ± SEM, * P < 0.05 vs 0 mM): 20.7 ± 3.3 U/mg Protein
- SOD activity ([1]; 1.0 mM, n=7, mean ± SEM, * P < 0.05 vs 0 mM): 11.6 ± 1.4 U/mg Protein
- SOD activity ([1]; 2.0 mM, n=7, mean ± SEM, * P < 0.05 vs 0 mM): 13.5 ± 1.7 U/mg Protein
- SOD activity compared with controls (in words) ([1]; 0.125-2.0 mM Compound 1): significantly increased (P<0.05)
- GSH-PX activity (in words) [2]: remained constant
- GSH-PX activity ([2]; 0.125 mM, n=6, mean ± SEM): 52.1 ± 4.7 U/mg Protein
- GSH-PX activity ([2]; 0.25 mM, n=6, mean ± SEM): 45.8 ± 3.5 U/mg Protein
- GSH-PX activity ([2]; 1.0 mM, n=6, mean ± SEM): 45.1 ± 5.3 U/mg Protein
- GSH-PX activity ([2]; 2.0 mM, n=6, mean ± SEM): 47.8 ± 3.8 U/mg Protein
- Polymorphonuclear leukocyte infiltration into ozone-exposed rat lungs [8]: decreased polymorphonuclear leukocyte infiltration
- GSH-PX activity (in words) [9]: not significantly different
- GSH-PX activity ([9]; 0.05 mM (so in the source)): 33.5 ± 3.2 U/mg Protein
- GSH-PX activity ([9]; 0.25 mM): 28.1 ± 5.7 U/mg Protein
- GSH-PX activity ([9]; 1.0 mM): 59.8 ± 17 U/mg Protein
- SOD activity ([10]; 0.05 mM (so in the source)): 9.5 ± 1.8 U/mg Protein
- SOD activity ([10]; 0.25 mM): 6.7 ± 0.8 U/mg Protein
- SOD activity ([10]; 1.0 mM): 12.2 ± 3.4 U/mg Protein
- SOD activity (in words) ([10]; concentration-dependent): significantly increased (P<0.05) in a concentration-dependent manner
- CAT activity (catalase (CAT) [3]; 0.125 mM, n=4, mean ± SEM, * P < 0.05 vs 0 mM): 9.1 ± 1.1 U/mg Protein
- CAT activity (catalase (CAT) [3]; 0.25 mM, n=4, mean ± SEM, * P < 0.05 vs 0 mM): 10.0 ± 1.8 U/mg Protein
- CAT activity (catalase (CAT) [3]; 1.0 mM, n=4, mean ± SEM, * P < 0.05 vs 0 mM): 11.2 ± 2.0 U/mg Protein
- CAT activity (catalase (CAT) [3]; 2.0 mM, n=4, mean ± SEM, * P < 0.05 vs 0 mM): 13.9 ± 1.6 U/mg Protein
- CAT activity compared with controls (in words) (catalase (CAT) [3]; 0.125-2.0 mM Compound 1): significantly increased (P<0.05)
